The source made the active and inactive calls.
Key:
[1] = target: T1, DNA repair protein RAD52 homolog (Homo sapiens, UniProt P43351); assay type: functional, biochemical
T1 sequence (P43351 whole entry): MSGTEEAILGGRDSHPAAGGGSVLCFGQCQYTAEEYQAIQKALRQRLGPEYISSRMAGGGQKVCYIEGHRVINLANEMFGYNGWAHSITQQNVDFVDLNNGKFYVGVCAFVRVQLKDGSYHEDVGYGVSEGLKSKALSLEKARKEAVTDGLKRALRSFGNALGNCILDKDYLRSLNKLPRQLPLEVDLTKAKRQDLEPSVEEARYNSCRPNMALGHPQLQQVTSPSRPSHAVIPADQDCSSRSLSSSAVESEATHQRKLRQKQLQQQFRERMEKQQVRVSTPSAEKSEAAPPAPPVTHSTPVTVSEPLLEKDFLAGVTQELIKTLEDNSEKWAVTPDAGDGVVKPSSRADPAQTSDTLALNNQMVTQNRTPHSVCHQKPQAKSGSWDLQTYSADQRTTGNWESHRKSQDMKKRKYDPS

[2] = target: T2, Protein Tat (Human immunodeficiency virus type 1 group M subtype B (isolate HXB2)(HIV-1), UniProt P04608); assay type: functional;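 further: tat binding to TAR RNA read out by fluorescence polarization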
T2 sequence (P04608 whole entry): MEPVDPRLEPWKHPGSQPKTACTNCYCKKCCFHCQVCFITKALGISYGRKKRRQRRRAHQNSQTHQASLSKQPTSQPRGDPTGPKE

[3] = target: Glutathione-S-transferase (Schistosoma japonicum, UniProt Q26513); assay: biotin-GST/anti-GST TR-FRET signal inhibitors, dose response, artefact control for Vif-APOBEC3G degradation inhibitor project, biochemical (AID 1117362); assay type: functional
[4] = target: Nonstructural protein 1 (Influenza A virus, UniProt Q194T2); assay type: functional, Influenza A virus (A/California/07/2009(H1N1))
[5] = HeLa cell cytotoxicity, dose response, cytotoxicity control for MgcRacGAP inhibitor project (AID 624300); assay type: functional
[6] = target: T3, Rac GTPase-activating protein 1 (Homo sapiens, UniProt Q9H0H5); assay: MgcRacGAP GTPase-activating activity inhibitors, confirmation, biochemical, ADP Hunter fluorescence, primary and confirmatory (AID 624330); assay type: functional
T3 sequence (Q9H0H5 whole entry): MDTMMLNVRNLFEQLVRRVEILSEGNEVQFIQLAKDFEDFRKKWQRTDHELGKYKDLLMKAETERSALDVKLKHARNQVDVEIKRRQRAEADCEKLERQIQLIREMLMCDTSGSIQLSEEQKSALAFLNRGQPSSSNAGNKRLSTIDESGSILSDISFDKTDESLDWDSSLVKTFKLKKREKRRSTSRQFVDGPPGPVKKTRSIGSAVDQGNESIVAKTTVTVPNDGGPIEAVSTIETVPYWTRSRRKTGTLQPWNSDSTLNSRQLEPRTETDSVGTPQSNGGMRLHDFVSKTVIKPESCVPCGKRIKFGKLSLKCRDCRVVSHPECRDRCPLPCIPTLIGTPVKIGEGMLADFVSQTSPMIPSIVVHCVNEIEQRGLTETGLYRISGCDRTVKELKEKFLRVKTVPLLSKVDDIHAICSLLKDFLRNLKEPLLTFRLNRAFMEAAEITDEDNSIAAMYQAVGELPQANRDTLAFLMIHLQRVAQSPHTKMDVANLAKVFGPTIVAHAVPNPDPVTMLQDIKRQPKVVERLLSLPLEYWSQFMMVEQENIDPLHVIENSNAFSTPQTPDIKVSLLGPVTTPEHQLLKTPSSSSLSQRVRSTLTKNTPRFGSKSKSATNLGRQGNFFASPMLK

[7] = target: Matrix metalloproteinase-14 (Homo sapiens, UniProt P50281); assay: Dose Response confirmation of uHTS hits for a small molecule inhibitors of MT1-MMP activation in a fluorescence assay set 1.; assay type: functional
[8] = target: T4, Histone-lysine N-methyltransferase NSD2 (Homo sapiens, UniProt O96028); assay type: biochemical
T4 sequence (O96028 whole entry): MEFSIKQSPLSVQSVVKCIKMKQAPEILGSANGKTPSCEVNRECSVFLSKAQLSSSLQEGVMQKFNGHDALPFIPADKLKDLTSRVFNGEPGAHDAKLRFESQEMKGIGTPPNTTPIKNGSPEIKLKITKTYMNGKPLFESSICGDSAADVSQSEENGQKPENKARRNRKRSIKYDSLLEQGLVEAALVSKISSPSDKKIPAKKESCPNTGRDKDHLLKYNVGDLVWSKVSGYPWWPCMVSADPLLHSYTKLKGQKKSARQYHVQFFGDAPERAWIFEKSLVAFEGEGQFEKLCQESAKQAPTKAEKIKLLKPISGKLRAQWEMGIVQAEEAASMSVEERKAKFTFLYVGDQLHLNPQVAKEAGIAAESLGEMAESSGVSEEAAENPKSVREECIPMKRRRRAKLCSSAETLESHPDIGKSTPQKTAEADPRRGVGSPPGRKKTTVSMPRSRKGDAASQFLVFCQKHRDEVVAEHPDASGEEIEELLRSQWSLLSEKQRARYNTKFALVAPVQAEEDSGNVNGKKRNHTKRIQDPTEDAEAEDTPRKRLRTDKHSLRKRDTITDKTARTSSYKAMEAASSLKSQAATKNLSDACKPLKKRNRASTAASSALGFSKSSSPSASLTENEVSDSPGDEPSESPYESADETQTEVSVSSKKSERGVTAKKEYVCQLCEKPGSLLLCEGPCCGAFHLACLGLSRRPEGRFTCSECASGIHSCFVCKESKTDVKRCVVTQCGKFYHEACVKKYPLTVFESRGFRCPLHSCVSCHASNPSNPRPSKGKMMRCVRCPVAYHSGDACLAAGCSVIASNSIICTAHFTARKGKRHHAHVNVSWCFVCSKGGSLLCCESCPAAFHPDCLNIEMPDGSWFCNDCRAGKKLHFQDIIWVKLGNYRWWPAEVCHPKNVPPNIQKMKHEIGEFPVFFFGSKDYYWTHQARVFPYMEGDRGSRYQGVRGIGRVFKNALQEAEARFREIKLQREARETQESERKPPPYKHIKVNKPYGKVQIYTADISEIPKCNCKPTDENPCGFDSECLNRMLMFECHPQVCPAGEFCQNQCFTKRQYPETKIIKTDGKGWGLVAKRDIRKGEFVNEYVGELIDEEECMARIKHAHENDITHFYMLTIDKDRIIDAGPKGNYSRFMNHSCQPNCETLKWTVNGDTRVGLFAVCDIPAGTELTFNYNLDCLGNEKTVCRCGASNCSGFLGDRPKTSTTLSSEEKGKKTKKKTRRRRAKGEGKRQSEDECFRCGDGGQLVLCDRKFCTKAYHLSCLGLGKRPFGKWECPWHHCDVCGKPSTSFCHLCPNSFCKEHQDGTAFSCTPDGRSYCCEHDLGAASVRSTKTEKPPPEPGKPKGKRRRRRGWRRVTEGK

[9] = target: T5, Fibrinogen beta chain (Homo sapiens, UniProt P02675); assay: Fluorescence polarization-based biochemical high throughput dose response assay to identify inhibitors that disrupt the binding of a cyclic peptide (Tn6) to the fibrin proteolytic product D-Dimer and fragment E complex [DD(E )].
[10] = target: T5, Fibrinogen beta chain; assay: Fluorescence polarization-based biochemical high throughput dose response assay to identify inhibitors that disrupt the binding of a cyclic peptide (Tn7) to the fibrin proteolytic product D-Dimer and fragment E complex [DD(E )].
[11] = Luminescence Cell-Based Dose Response HTS to Identify Activators of Luciferase Translation or Activity in H4 […] Cells. [Related pubchem assays: 1829 (Project Summary), 1814 (Primary HTS)]; assay type: functional
[12] = Artemis endonuclease inhibitor potency, dose response, biochemical, fluorescence intensity (AID 720701); assay type: functional;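 further: Artemis endonuclease enzyme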
[13] = target: Paired box protein Pax-8 (Homo sapiens, UniProt Q06710); assay: inhibitors of PAX8-driven TPO luciferase reporter, dose response, RMG-I cells, cherry-pick (AID 687027); assay type: functional, cell-based;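 further: luciferase reporter driven by Pax8 target thyroperoxidase promoter measured by SteadyGlo luminescence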
[14] = PAX2 cell-based inhibition, dose response, selectivity assay for PAX8 inhibitor project, plate reader, dry powder samples (AID 743048); assay type: functional;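 further: HEK293 cells carrying a WT1 promoter luciferase reporter driven by expressed Pax2; potency is for inhibition of Pax2 driven reporter signal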
[15] = cytotoxicity in COV362 ovarian cancer cells, dose response, cytotoxicity control for PAX8 inhibitor project, cell-based, plate reader, dry powder, SA12 (AID 743144); assay type: functional
[16] = NIH:OVCAR-3 ovarian cancer cell cytotoxicity, dose response, PAX8 inhibitor project, plate reader, dry powder samples (AID 743044); assay type: functional, cell-based
[17] = PAX5 activity inhibitors, dose response, selectivity assay for PAX8 inhibitor project, cell-based, plate reader, dry powder samples (AID 743047); assay type: functional;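 further: HEK293 cells carrying a Pax5 driven CD19 promoter luciferase reporter; potency of inhibitors that lower reporter luminescence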
[18] = cytotoxicity in OVCAR4 cells, dose response, cytotoxicity control for PAX8 inhibitor project, cell-based, plate reader, dry powder, SA11 (AID 743150); assay type: functional; settings: OVCAR-4
[19] = cytotoxicity in COV434 cells, dose response, cytotoxicity control for PAX8 inhibitor project, cell-based, plate reader, dry powder, SA7 (AID 743145); assay type: functional
[20] = cytotoxicity in OV-90 ovarian cancer cells, dose response, PAX8 inhibitor project, cell-based, plate reader, dry powder, SA8 (AID 743149); assay type: functional
[21] = cytotoxicity in OVCAR8 ovarian cancer cells, dose response, PAX8 project, cell-based, plate reader, dry powder samples (AID 743197); assay type: functional; settings: OVCAR-8
[22] = cytotoxicity dependent on PAX8, dose response, cell-based, plate reader, dry powder (AID 743049); assay type: functional

T5 sequence (P02675 whole entry, the tested form may be a part): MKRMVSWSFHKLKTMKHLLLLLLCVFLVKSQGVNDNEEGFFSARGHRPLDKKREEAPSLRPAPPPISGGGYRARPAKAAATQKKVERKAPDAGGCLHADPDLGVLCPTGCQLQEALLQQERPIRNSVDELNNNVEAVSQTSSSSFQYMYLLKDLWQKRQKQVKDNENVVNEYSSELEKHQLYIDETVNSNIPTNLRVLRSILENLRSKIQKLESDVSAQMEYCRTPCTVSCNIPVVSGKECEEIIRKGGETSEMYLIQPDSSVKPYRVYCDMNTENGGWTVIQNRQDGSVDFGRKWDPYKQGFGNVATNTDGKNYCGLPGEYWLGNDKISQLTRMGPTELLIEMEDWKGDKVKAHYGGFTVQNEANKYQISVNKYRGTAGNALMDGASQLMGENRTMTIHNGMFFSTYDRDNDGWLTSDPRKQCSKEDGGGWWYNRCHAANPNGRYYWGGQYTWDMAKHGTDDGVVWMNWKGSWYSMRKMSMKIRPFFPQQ
Paired box protein Pax-8, sequence (Q06710 whole entry): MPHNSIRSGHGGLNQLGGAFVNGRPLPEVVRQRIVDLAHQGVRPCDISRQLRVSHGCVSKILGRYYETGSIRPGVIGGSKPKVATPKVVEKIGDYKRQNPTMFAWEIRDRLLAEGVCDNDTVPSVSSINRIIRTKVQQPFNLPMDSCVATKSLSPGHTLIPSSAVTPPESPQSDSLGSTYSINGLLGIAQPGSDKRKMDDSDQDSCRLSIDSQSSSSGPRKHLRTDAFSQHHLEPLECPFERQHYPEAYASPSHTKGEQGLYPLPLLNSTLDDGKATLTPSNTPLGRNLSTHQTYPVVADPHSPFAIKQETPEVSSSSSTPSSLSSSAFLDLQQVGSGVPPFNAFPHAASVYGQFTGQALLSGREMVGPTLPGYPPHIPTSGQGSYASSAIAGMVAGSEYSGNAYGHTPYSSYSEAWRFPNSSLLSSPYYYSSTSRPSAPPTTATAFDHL
Glutathione-S-transferase, sequence (Q26513 whole entry): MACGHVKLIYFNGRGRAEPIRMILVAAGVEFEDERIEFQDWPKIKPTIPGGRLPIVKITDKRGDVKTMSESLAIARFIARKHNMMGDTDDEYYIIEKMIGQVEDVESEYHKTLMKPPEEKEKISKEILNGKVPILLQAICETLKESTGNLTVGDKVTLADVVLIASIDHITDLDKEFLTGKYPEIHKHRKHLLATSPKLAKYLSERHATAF
Nonstructural protein 1, sequence (Q194T2 whole entry): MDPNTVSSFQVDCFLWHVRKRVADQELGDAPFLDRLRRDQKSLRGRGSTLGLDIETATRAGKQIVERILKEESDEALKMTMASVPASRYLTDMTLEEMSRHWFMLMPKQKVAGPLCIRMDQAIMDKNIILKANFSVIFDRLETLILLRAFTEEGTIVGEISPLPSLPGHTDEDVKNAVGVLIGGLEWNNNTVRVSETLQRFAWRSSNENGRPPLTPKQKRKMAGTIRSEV

Nc1ccc(N2CCN(CCCCN3C(=O)C4CCCN4C3=O)CC2)cc1 (stereo not drawn)
AC50 [1]: 1.29 µM (active)
IC50 [2]: > 100 µM (active)
IC50 [3]: 3.15 µM (active)

O=C1c2cccc(NCCCNCCO)c2C(=O)c2cccc(NCCCNCCO)c21
IC50 [4]: 10.1 µM (active)
CC50 [5]: 25.6 µM (active)
IC50 [6]: 27.8 µM (active)
AC50 [1]: < 0.15 µM (active)
IC50 [7]: 38 µM (inactive)
AC50 [8]: 3.53 µM (active)
IC50 [9]: 9.1 µM (active)
IC50 [10]: > 83.3 µM (inactive)

Nc1ccc2[nH]c(-c3ccccn3)nc2c1
EC50 [11]: 24.6 µM (active)
IC50 [12]: 16.7 µM (active)

N#C[C@H]1[C@@H](c2ccc(C#Cc3ccc(F)cc3)cc2)[C@H](CO)N1C(=O)C1CCCC1
AC50 [13]: 13.4 µM (active)
AC50 [14]: 9.19 µM (active)
AC50 [15]: 33.3 µM (active)
AC50 [16]: 34.5 µM (active)
AC50 [17]: 8.42 µM (active)
AC50 [18]: > 70 µM (inactive)
AC50 [19]: 26.2 µM (active)
AC50 [20]: 26.5 µM (active)
AC50 [21]: > 70 µM (inactive)
AC50 [22]: 18.6 µM (active)

— ChEMBL document CHEMBL1201862, “PubChem BioAssay data set” (2004)
